Source: article PMC2864793 (Molecular cell, 2010)

Key:
IRE1 [1] = biological target: T1, IRE1 (Saccharomyces cerevisiae, UniProt P32361, K985A); assay: RNase activation assay and DSS crosslinking at […] ADP; format: biochemical
T1 sequence (P32361 658-1115 K985A): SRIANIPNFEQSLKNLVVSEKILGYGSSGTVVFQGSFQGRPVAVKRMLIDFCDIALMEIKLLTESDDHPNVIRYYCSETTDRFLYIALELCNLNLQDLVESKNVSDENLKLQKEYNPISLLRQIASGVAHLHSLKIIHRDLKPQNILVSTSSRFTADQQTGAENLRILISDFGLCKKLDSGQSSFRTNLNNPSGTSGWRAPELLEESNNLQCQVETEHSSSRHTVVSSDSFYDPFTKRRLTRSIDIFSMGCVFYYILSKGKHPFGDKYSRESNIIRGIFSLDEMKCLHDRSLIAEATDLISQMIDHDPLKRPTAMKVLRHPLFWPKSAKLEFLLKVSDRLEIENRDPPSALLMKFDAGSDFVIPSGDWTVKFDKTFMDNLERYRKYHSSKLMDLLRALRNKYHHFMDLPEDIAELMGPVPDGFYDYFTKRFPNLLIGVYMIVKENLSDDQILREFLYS

IRE1 [2] = biological target: IRE1 (Saccharomyces cerevisiae, UniProt P32361); assay: co-crystal structure with quercetin; format: biochemical
IRE1 [3] = biological target: T2, IRE1 (Saccharomyces cerevisiae, UniProt P32361, D797A); assay: fluorescent RNase activation assay at […]; format: biochemical
T2 sequence (P32361 658-1115 D797A): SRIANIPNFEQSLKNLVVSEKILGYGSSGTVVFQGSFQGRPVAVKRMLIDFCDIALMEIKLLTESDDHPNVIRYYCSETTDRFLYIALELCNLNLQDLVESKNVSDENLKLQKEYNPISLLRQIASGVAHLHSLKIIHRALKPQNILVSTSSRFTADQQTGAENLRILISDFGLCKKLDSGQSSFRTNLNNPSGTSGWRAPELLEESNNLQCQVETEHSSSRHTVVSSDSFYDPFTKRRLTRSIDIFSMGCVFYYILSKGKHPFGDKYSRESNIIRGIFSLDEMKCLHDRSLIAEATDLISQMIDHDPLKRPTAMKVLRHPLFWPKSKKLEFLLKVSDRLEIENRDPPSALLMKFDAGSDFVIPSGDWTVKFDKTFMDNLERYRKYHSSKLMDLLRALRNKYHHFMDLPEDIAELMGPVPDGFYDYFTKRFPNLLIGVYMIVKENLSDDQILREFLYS

cross-linking = biological target: the molecule itself; assay: cross-linking
AUC = biological target: the molecule itself; assay: AUC

Nc1ncnc2c1ncn2[C@@H]1O[C@H](COP(=O)(O)OP(=O)(O)O)[C@@H](O)[C@H]1O [ADP]
RNase activation assay and DSS crosslinking at 2 mM ADP (IRE1 [1]): abolished by the Q-site mutant IRE1^K985A, although ADP-dependent crosslinking was still observed
EC50 (IRE1 [2]): ~40 µM

O=c1c(O)c(-c2ccc(O)c(O)c2)oc2cc(O)cc(O)c12 [quercetin]
fluorescent RNase activation assay at 25 μM (IRE1 [3]): addition of quercetin substantially activates its RNase (Figure 7C). Such activation was Q-site dependent

B1: IRE1^K985A (Q-site mutant of yeast IRE1 658–1115) (domain or fragment, UniProt P32361 658-1115, looked up)
chain: SRIANIPNFEQSLKNLVVSEKILGYGSSGTVVFQGSFQGRPVAVKRMLIDFCDIALMEIKLLTESDDHPNVIRYYCSETTDRFLYIALELCNLNLQDLVESKNVSDENLKLQKEYNPISLLRQIASGVAHLHSLKIIHRDLKPQNILVSTSSRFTADQQTGAENLRILISDFGLCKKLDSGQSSFRTNLNNPSGTSGWRAPELLEESNNLQCQVETEHSSSRHTVVSSDSFYDPFTKRRLTRSIDIFSMGCVFYYILSKGKHPFGDKYSRESNIIRGIFSLDEMKCLHDRSLIAEATDLISQMIDHDPLKRPTAMKVLRHPLFWPKSAKLEFLLKVSDRLEIENRDPPSALLMKFDAGSDFVIPSGDWTVKFDKTFMDNLERYRKYHSSKLMDLLRALRNKYHHFMDLPEDIAELMGPVPDGFYDYFTKRFPNLLIGVYMIVKENLSDDQILREFLYS
modifications: purified as a phosphorylated protein (sites not given)
binding result (cross-linking): binds

B2: cytosolic portion of yeast IRE1 (residues 658–1115; inclusive of both the kinase and KEN domains) (domain or fragment, UniProt P32361 658-1115, looked up)
chain: SRIANIPNFEQSLKNLVVSEKILGYGSSGTVVFQGSFQGRPVAVKRMLIDFCDIALMEIKLLTESDDHPNVIRYYCSETTDRFLYIALELCNLNLQDLVESKNVSDENLKLQKEYNPISLLRQIASGVAHLHSLKIIHRDLKPQNILVSTSSRFTADQQTGAENLRILISDFGLCKKLDSGQSSFRTNLNNPSGTSGWRAPELLEESNNLQCQVETEHSSSRHTVVSSDSFYDPFTKRRLTRSIDIFSMGCVFYYILSKGKHPFGDKYSRESNIIRGIFSLDEMKCLHDRSLIAEATDLISQMIDHDPLKRPTAMKVLRHPLFWPKSKKLEFLLKVSDRLEIENRDPPSALLMKFDAGSDFVIPSGDWTVKFDKTFMDNLERYRKYHSSKLMDLLRALRNKYHHFMDLPEDIAELMGPVPDGFYDYFTKRFPNLLIGVYMIVKENLSDDQILREFLYS
modifications: phosphorylated when purified from bacteria (sites not given for this construct)
stoichiometry N (AUC): 2
